Where “and” joins values, the source holds several entries; their conditions need not be identical. Equal entries are not always repeated.
What was measured:
[1] = tested on: primary culture of astrocytes from the mouse cortex expressing Laconic; experiment: Single-cell lactate imaging (Laconic) in primary culture of cortical astrocytes; assay type: cell-based
Protocol: Animals used for primary cultures were mixed F1 male mice (C57BL/6J × CBA/J), kept in an animal room under SPF conditions at a room temperature of 20 ± 2°C, in a 12/12-h light/dark cycle and with free access to water and food. Mixed cortical cultures of neuronal and glia cells (1 –to 3-day-old neonates) was cultured in Neurobasal medium (Gibco) supplemented with 5 mM glucose and B27. Cells were seeded on petri dishes and superfused with KRH HEPES pH 7.4. The lactate imaging experiments with single-cell resolution were performed using cultured astrocytes at 11–14 days post-dissection. Real time experiments were performed with KRH HEPES bathing solution containing (in mM) 136 NaCl, 3 KCl, 1.25 CaCl2, 1.25 MgCl2, 10 HEPES/Tris and pH 7.2 at 36°C with 300 mOsm, without carbon sources for mitochondrial toxicant experiments and 2 mM glucose and 1 mM lactate for Warburg index determination. Experiments were performed in upright Olympus FV1000 confocal microscope equipped with a 20X water-immersion objective (numerical aperture, 1.0) and a 440 nm solid-state laser.
To plot the data, we used a ratio between mTFP and Venus channels. This ratio is proportional to lactate levels, since its binding to the sensor produced a decrease in FRET efficiency. This ratio was expressed in two formulas described below: NormalizedΔR=R(mTFP/Venus)/R(mTFP/Venus)min
With the aim of testing if this observation occurs in general and if azide induced-lactate accumulation can be reproduced using another mitochondrial toxicant with a different molecular target, we performed single-cell experiments exposing primary culture of astrocytes from the mouse cortex expressing Laconic (Fig 1A) to different mitochondria inhibitors that block the ETC at different levels (Fig 1C). To take advantage of the maximal dynamic range of the lactate FRET sensor the baseline measurements were performed using buffer without carbon sources to force start the experiments with lactate levels below 100 μM.
Each data point is from an average of ten cells from three independent experiments.

[2] = tested on: MDA-MB-231 cells stably expressing the FRET lactate indicator Laconic (MitoTox Reporter); experiment: MitoToxy assay: toxicity-induced lactate accumulation in MitoTox Reporter cells, 96-well plate reader, with 50 μM pCMBS; assay type: cell-based; details: read-out: IC50 (toxicity-induced lactate accumulation, MitoToxy)
Protocol: (§1) MitoTox reporter cell line was cultured in Leibowitz media (Gibco) supplemented with 10% of fetal bovine serum (FBS) at 37°C at atmospheric CO2 levels in a 100 mm petri dish. Once cells reached 100% confluency, they were trypsinized using 5% trypsin (Gibco) and washed in PBS. Viability was determine using trypan blue staining and 10,000 cells were seeded into each well of a 96 well plate. Experiments in 96 well format were performed once cells reached 100% confluency after 6 days, during the incubation media was not replaced. All the plates with signal-to-noise ration below 1.3 for monomeric Teal Fluorescent Protein (mTFP) and Venus channels were discarded. Background signal was determined with KRH buffer without cells. Experiments consisted in washing out the culture media using KRH HEPES buffer containing (mM) 136 NaCl, 3 KCl, 1.25 CaCl2, 1.25 MgCl2, 10 HEPES/Tris and pH 7.2 at 37°C with 300 mOsm. Then 200 μl of KRH HEPES buffer without any carbon sources was added to each well and the baseline was measured (RMIN), then 100 μl of buffer was replaced with mitochondrial toxicant/controls and signal was measured to obtain a stimulated response (RMAX). In experiments were pCMBS was used to block lactate exit, the inhibitor was added simultaneously with the mitochondrial toxicants. Data was collected in triplicated after 5, 10, 30, and 60 minutes of incubation. All the experiments in 96 well plates were performed in an EnVision® multiplate reader (PerkinElmer). Each well was excited at 430 nm and the intensity of mTFP and Venus fluorescence emission were recorded at 485 nm and 528 nm, using a set of filters.
(§2) Where R(mTFP/Venus) min corresponded to the minimal change of mTFP/Venus ratio during the single-cell experiments. Results in 96 well plates experiments were expressed by the ΔR%. This parameter was obtained from the difference between the RMAX and RMIN from the same well (before-after experiment) as follow: ΔR%=(R(mTFP/Venus)max−R(mTFP/Venus)min/R(mTFP/Venus)min)x100

MitoTox reporter cells = details: 32 μM rotenone, 16 μM antimycin, 5 mM azide, 80 μM oligomycin, 10 μM myxothiazol; 5, 10, 30, 60 minutes; 37°C
Protocol: as §1, with “Experiments consisted in washing out the culture media using KRH HEPES buffer containing (mM) 136 NaCl, 3 KCl, 1.25 CaCl2, 1.25 MgCl2, 10 HEPES/Tris and pH 7.2 at 37°C with 300 mOsm.” left out, “In experiments were pCMBS was used to block lactate exit, the inhibitor was added simultaneously with the mitochondrial toxicants. Data was collected in triplicated after 5, 10, 30, and 60 minutes of incubation.” left out, “filters. […]” for “filters.”

HepG2 cells = tested on: HepG2 cells; design: method as in PMID 22689143; details: Seahorse technology, read-out: Concentration required to change the OCR and ECAR by 50%; cited from earlier work
ATP = details: read-out: IC50, ATP depletion; cited from earlier work
[3] = tested on: MitoTox Reporter cells (MDA-MB-231 expressing Laconic); experiment: Pilot screening of 13 compounds with MitoTox Reporter cells, multiplate reader; assay type: cell-based; details: for ΔR% (lactate accumulation): average of 4 replicate wells, Fig 9 legend 30 minutes, 37°C
Protocol: as §1, §2
Multiple comparisons versus control groups (Holm-Sidak method), Overall significance level P < 0,05.
The capability of the assay to identify previously described toxic drugs was explored through a pilot screening assay. We selected 13 compounds from a variety of therapeutic classes to perform a pilot screening assay using MitoTox Reporter cells and a standard multiplate reader. […] To perform the assays, we prepared master stocks for each compound in 0.2% DMSO. Assays were performed with compounds at final concentrations of 1, 5, and 10 μM and the response of MitoTox Reporter cells were measured at 5, 10, 30, and 60 minutes. […] As a negative control we selected a compound with no reported side-effects.

[4] = tested on: mitochondrial membrane potential (MMP); details: treatment time 6 hours; ref Li et al., 2014 [50]; read-out: IC50, MMP; cited from earlier work

SMILES	Cytosolic lactate accumulation in astrocytes [1]	IC50 [2]	Lactate accumulation (ΔR%) in 96-well plates without pCMBS (MitoTox reporter cells)	EC50 (HepG2 cells)	IC50 (ATP)	ΔR% (lactate accumulation) ([3]; 5 μM)	ΔR% (lactate accumulation) ([3]; 10 μM)	Concentration at which toxicity / mitochondrial effects were detected in the pilot screening ([3]; tested at 1, 5 and 10 μM)	IC50 [4]
[N-]=[N+]=[N-].[Na+] [azide]	induced an acute cytosolic lactate accumulation	1440 µM	declined after 5 minutes						
Cc1c(C)c2c(c(C)c1O)CCC(C)(COc1ccc(CC3SC(=O)NC3=O)cc1)O2 (stereo not drawn) [troglitazone]				> 100 µM	28 µM and 31.4 µM	The effect was also detected	over 14%	5 µM	176 µM

Source: publication PMC6822764, “MitoToxy assay: A novel cell-based method for the assessment of metabolic toxicity in a multiwell plate format using a lactate FRET nanosensor, Laconic” (PLoS ONE, 2019)
